Key:
[1] = test system: neointima formation following balloon catheter-induced injury of the common carotid arteries; test: Neointima formation after balloon catheter-induced injury of the common carotid arteries; assay type: in vivo, male Wistar rats
Procedure: Two of test compounds discovered using the methods of the present invention, particularly shown in Example VI, compositions RUS 3052 and RUS 3108, were evaluated for efficacy in the reduction of neointima formation following balloon catheter-induced injury of the common carotid arteries of male Wistar rats. Thirty-two rats were divided into groups of eight animals per group: two test compound groups and two control groups. The two control groups were the positive control, 5 mg/kg probucol, and the negative control, the vehicle for the test compositions and the positive control probucol. […] The vehicle solution was 10% DMSO, 10% cremophor, 20% propylene glycol in water for injection. Test compositions RUS 3052 and RUS 3108 were initially administered at 5 mg/kg up to and including the day of surgery. Starting the day after surgery, until the end of the study, the dosage of all compositions was lowered to 1 mg/kg. The test compositions were prepared by combining 5 mg of the test compound or control with 100 μl DMSO, 100 μl cremophor EL, and 200 μl propylene glycol with intermittent mixing using a cyclomixer. Water for injection was added in 100 μl aliquots to give a final volume of 1 ml.
The test compositions and controls were administered daily by intraperitoneal injection starting 72 hours prior to the surgical procedure and continued until necropsy, 14 days after the procedure. One animal from each of the four groups underwent the surgical procedure each day using a #2F Fogarty embolectomy catheter. An embolectomy catheter was introduced into the right external carotid artery and retrogradely passed to the aortic arch through the common carotid artery. The balloon was inflated with sterile saline and then pulled to the common carotid-external carotid bifurcation. […]
Fourteen days post-surgery, the animals of Example VII were euthanized and the damaged right carotid arteries were collected, sectioned and stained with modified elastin-trichrome, and then analyzed for neointima formation that was quantified by histomorphometric analysis. […]

human aortic SMC = test: (3H)thymidine DNA synthesis / proliferation of sub-confluent SMC; assay type: cell-based; settings: purified perlecan added to 10% serum-containing medium, 24 h
Procedure: Smooth muscle cells reach quiescence during serum starvation resulting in a blockade of DNA synthesis. […] The cells used in this Example and the other examples herein were human aortic SMC, grown in basal medium supplemented with growth factors, bFGF and epidermal growth factor (EGF) (Clonetics, San Diego, Calif.).
The addition of perlecan to serum-containing medium inhibited SMC growth by 70% (FIG. 2). Sub-confluent SMC (40-50% confluence) were incubated in serum-free medium or 10% serum-containing medium with or without purified perlecan for 24 h. DNA synthesis was then determined by incubating cells for another 5 h in medium containing (^3H)thymidine. TCA precipitable (DNA) thymidine counts were determined and expressed as percentage of DNA synthesis in cells grown in 10%FBS.
Perlecan, induced in serum-free conditions, was required for the blockade of DNA synthesis observed in serum-free conditions. The anti-perlecan antibody of Example I was used to block perlecan. Sub-confluent levels of SMC (40-50% confluence) were incubated in serum-free medium containing 0, 5, 10 and 20 μg of mouse IgG or anti-perlecan IgG for 24 hours. DNA synthesis was then determined by incubating cells for another 5 hours in medium containing (^3H)thymidine. TCA precipitable (DNA) (^3H)thymidine counts were determined and expressed as percentage of DNA synthesis in cells grown in 10% FBS. […]

Molecule	IA/MA Average ± STD (n), Based on Section Averages ([1]; rat, i.p. daily, 5 mg/kg up to surgery then 1 mg/kg, 14 days post-surgery, all sections within group)	IA/MA Average ± STD (n), Based on Animal Averages ([1]; rat, i.p. daily, 5 mg/kg up to surgery then 1 mg/kg, 14 days post-surgery, sections with IA/MA > 0.0915)	reduction of neointima formation in comparison to the negative control group ([1]; significance set at p<0.20)	inhibition of SMC growth (DNA synthesis, percentage of cells grown in 10% FBS) (human aortic SMC)
CC(C)(Sc1cc(C(C)(C)C)c(O)c(C(C)(C)C)c1)Sc1cc(C(C)(C)C)c(O)c(C(C)(C)C)c1 [Probucol, probucol]	0.71 ± 0.30 (9)	0.65 ± 0.25 (3)	effective in significantly reducing neointima formation	
perlecan				70%
